Values of other authors as cited in patent US20260108637A1, “USES OF PSMA-TARGETING AND TSPO-TARGETING COMPOUNDS FOR EVALUATION OF INJURIES IN THE PERIPHERAL NERVOUS SYSTEM” (The Johns Hopkins University, priority 2023, published 2026).
pKi: −log10 of the molar value.

Target: GCPII (Homo sapiens, UniProt Q04609)
Conditions: described previously, Chen et al., 2009

Sequence of GCPII (Q04609 whole entry, species assumed): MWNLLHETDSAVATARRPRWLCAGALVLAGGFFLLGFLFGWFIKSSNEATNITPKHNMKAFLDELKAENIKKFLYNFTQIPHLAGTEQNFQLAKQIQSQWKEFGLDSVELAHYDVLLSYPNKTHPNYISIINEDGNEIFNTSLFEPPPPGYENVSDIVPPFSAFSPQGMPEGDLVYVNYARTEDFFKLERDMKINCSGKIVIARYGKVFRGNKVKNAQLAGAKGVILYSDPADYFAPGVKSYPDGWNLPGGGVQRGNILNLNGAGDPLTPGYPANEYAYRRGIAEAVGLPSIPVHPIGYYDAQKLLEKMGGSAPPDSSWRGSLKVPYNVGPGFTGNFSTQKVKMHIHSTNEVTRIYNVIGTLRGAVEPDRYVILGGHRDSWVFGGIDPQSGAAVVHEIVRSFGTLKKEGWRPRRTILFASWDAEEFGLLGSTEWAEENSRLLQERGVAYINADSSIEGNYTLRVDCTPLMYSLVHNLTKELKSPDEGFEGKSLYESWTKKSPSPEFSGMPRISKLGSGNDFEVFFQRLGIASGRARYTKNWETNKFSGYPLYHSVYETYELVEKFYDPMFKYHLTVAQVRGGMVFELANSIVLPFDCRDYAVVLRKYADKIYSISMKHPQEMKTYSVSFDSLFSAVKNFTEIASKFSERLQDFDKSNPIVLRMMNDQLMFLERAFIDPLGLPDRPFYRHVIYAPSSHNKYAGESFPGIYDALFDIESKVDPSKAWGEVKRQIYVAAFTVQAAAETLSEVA

Q: With `CC1(C)C(/C=C/C2=C(Oc3ccc(S(=O)(=O)O)cc3)C(=C/C=C3/N(CCCCS(=O)(=O)O)c4ccc(S(=O)(=O)O)cc4C3(C)C)/CCC2)=[N+](CCCCCC(=O)NCCCCC(NC(=O)CCCCCCC(=O)NCCCC[C@H](NC(=O)N[C@@H](CCC(=O)O)C(=O)O)C(=O)O)C(=O)O)c2ccc(S(=O)(=O)[O-])cc21` (stereo partly shown) [YC27] as the molecule, how does the pKi read?
A: 9.43
